Assays:
Details in all cases: in vivo
[1] = biological target: P-glycoprotein 1 and 3 (MDR1a/MDR1b) (Mus musculus, UniProt P21447+P06795); assay: (§1) TP_TRANSPORTER: increase in testes concentration in mdr1a/1b(-/-) mouse; assay type: functional, organism-based, Testis
[2] = biological target: T1, ATP-dependent translocase ABCB1 (Mus musculus, UniProt P21447); assay: TP_TRANSPORTER: increase in brain concentration in mdr1a/1b(-/-) mouse; assay type: functional, organism-based
[3] = biological target: T1, ATP-dependent translocase ABCB1; assay: as §1; assay type: functional, organism-based, Testis

T1 sequence (P21447 whole entry): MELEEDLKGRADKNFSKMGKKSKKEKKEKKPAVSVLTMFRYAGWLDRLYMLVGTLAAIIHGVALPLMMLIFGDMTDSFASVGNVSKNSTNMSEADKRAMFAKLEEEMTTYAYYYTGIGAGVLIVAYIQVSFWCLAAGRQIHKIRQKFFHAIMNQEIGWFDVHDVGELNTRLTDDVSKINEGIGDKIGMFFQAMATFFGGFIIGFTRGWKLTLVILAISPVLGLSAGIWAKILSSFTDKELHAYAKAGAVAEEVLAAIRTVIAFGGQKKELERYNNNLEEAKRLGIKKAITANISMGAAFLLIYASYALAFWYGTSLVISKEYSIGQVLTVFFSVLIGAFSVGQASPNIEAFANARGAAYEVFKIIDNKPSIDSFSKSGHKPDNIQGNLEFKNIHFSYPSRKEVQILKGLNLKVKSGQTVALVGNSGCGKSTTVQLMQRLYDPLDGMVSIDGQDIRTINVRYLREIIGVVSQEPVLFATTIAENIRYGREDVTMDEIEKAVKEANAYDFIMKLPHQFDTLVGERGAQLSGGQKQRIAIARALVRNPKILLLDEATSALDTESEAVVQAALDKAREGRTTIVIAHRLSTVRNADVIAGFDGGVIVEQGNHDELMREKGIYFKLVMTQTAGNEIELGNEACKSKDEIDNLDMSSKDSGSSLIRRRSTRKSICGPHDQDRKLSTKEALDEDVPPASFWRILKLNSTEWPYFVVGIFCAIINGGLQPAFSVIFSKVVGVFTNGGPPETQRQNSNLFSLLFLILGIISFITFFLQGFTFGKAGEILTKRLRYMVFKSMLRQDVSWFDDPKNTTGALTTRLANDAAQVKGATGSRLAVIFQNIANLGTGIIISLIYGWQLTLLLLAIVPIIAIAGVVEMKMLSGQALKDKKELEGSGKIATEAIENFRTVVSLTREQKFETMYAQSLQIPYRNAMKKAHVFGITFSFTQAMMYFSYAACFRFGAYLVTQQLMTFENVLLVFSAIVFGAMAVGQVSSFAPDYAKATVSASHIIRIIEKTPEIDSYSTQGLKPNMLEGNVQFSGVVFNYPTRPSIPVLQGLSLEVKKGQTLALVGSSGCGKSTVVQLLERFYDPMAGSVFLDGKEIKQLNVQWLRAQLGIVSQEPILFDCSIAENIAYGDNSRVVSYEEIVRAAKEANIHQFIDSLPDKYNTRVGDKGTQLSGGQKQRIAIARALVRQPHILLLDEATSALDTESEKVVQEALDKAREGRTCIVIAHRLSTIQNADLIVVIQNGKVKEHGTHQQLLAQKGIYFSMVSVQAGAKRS

| SMILES | Activity [1] | Activity [2] | Activity [3] |
| --- | --- | --- | --- |
| C[C@]12CCC(=O)C=C1CC[C@@H]1[C@@H]2[C@@H](O)C[C@]2(C=O)[C@@H](C(=O)CO)CC[C@@H]12 [ALDOSTERONE] | substrate [+] |  |  |
| C[C@]12CCC(=O)C=C1CC[C@@H]1[C@@H]2[C@@H](O)C[C@@]2(C)[C@H]1CC[C@]2(O)C(=O)CO [HYDROCORTISONE] | substrate [+] |  |  |
| CC(=O)[C@H]1CC[C@H]2[C@@H]3CCC4=CC(=O)CC[C@]4(C)[C@H]3CC[C@]12C [PROGESTERONE] |  | substrate [+] | substrate [+] |

Reference: ChEMBL document CHEMBL2074022, “Penetration of endogenous steroid hormones corticosterone, cortisol, aldosterone and progesterone into the brain is enhanced in mice deficient for both mdr1a and mdr1b P-glycoproteins” (J Neuroendocrinol, 2002)
